In PMC12377202, “Design, synthesis, and cytotoxic evaluation of quinazoline-based derivatives as VEGER-2 inhibitors: comparative study against EGFR kinase activity, induction of apoptosis, and molecular docking study” (RSC Advances, 2025):
In brackets after ≈: the same amount, converted by molar mass. Where two headings read alike, the source gives them in different places.

Tests used:
caspase-3 = test: Caspase-3 expression level in HepG-2 cells; assay type: cell-based, human; details: for Caspase-3 ± SE: HepG-2, at IC50 concentrations, control 0.460
Protocol: (§1) All synthesized compounds were tested at their cytotoxic concentrations in HepG-2 cells for analysis of gene expression levels of apoptotic markers caspase-3, caspase-9, TNF-α, and IL-6 proteins, and only two active compounds were tested for BAX and Bcl-2 proteins.
(§2) through Flow cytometric analysis.
(§3) Pellets were collected again and incubated with
(§4) Total RNA from vehicle-treated
(§5) (Thermo Scientific, USA).
(§6) All experiments were performed in […]

Bcl-2 = Bcl-2 gene expression in HepG-2 cells; assay type: cell-based, human
Protocol: as §1, §2, §3, §4, §5, §6

caspase-9 = test: Caspase-9 expression level in HepG-2 cells; assay type: cell-based, human; details: for Caspase-9 ± SE: HepG-2, at IC50 concentrations, control 11.01
Protocol: as §1, §2, §3, §4, §5, §6

VEGFR-2 = VEGFR-2 (Homo sapiens, UniProt P35968); test: In vitro VEGFR-2 inhibitory assay (ELISA kit); details: VEGFR-2 kinase
BAX = BAX gene expression in HepG-2 cells; assay type: cell-based, human
Protocol: as §1, §2, §3, §4, §5, §6

MCF-7 [1] = test: MTT anti-proliferative assay, MCF-7; assay type: cell-based, human; details: Homo sapiens, MCF7
K-562 = test: MTT anti-proliferative assay, K-562; assay type: cell-based, human; details: Homo sapiens, K562
EGFR = EGFR (Homo sapiens, UniProt P00533); test: EGFR kinase inhibition assay (ELISA kit)
HepG-2 = test: MTT anti-proliferative assay, HepG-2; assay type: cell-based, human; details: Homo sapiens, HepG2
BAX/Bcl-2 = BAX/Bcl-2 ratio in HepG-2 cells; assay type: cell-based, human
Protocol: as §1, §2, §3, §4, §5, §6

IL-6R = IL-6R level in HepG-2 cells; assay type: cell-based, human; details: control 44.10
Protocol: as §1, §2, §3, §4, §5, §6

TNF-alpha = TNF-alpha level in HepG-2 cells; assay type: cell-based, human; details: control 43.48
Protocol: as §1, §2, §3, §4, §5, §6

PC3 = details: cited from earlier work
MCF-7 [2] = details: cited from earlier work
VEGFR-2 kinase = details: cited from earlier work
HepG2 = details: cited from earlier work
WI-38 = details: read-out: IC50 normal WI-38 cells; cited from earlier work

Chain of VEGFR-2 (P35968 20-1356): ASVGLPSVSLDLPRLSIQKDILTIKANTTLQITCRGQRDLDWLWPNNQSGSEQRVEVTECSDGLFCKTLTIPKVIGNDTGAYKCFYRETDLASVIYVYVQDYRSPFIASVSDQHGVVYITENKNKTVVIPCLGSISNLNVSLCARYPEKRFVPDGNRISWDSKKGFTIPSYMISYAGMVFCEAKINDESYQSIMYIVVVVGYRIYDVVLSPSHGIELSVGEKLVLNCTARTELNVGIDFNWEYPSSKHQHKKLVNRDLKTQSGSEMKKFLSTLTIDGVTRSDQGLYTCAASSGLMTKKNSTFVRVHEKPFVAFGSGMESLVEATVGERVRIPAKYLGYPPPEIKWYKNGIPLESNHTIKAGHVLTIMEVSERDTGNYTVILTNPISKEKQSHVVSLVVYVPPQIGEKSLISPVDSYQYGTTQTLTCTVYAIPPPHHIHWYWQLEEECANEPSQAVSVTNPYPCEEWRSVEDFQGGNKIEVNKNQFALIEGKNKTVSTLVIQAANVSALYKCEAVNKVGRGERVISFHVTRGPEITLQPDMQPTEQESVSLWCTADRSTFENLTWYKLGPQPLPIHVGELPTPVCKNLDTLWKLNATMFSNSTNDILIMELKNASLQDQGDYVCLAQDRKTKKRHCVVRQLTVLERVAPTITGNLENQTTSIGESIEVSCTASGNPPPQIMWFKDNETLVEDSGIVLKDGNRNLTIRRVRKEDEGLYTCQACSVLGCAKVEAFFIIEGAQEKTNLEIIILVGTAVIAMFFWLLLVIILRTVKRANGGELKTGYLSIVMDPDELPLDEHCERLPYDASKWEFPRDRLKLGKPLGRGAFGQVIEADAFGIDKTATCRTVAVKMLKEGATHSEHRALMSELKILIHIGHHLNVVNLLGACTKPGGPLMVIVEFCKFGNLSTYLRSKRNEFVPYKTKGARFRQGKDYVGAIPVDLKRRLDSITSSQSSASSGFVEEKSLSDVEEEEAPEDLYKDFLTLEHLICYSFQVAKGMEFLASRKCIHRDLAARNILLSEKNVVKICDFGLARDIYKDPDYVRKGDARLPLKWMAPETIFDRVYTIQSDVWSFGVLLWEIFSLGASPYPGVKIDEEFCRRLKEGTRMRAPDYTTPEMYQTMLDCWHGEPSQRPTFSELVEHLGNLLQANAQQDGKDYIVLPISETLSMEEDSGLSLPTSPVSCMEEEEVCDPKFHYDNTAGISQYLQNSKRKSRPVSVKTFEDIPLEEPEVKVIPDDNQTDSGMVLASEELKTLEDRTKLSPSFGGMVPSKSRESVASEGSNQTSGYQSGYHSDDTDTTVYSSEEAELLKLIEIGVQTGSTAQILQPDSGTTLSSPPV
Chain of EGFR (P00533 25-1210): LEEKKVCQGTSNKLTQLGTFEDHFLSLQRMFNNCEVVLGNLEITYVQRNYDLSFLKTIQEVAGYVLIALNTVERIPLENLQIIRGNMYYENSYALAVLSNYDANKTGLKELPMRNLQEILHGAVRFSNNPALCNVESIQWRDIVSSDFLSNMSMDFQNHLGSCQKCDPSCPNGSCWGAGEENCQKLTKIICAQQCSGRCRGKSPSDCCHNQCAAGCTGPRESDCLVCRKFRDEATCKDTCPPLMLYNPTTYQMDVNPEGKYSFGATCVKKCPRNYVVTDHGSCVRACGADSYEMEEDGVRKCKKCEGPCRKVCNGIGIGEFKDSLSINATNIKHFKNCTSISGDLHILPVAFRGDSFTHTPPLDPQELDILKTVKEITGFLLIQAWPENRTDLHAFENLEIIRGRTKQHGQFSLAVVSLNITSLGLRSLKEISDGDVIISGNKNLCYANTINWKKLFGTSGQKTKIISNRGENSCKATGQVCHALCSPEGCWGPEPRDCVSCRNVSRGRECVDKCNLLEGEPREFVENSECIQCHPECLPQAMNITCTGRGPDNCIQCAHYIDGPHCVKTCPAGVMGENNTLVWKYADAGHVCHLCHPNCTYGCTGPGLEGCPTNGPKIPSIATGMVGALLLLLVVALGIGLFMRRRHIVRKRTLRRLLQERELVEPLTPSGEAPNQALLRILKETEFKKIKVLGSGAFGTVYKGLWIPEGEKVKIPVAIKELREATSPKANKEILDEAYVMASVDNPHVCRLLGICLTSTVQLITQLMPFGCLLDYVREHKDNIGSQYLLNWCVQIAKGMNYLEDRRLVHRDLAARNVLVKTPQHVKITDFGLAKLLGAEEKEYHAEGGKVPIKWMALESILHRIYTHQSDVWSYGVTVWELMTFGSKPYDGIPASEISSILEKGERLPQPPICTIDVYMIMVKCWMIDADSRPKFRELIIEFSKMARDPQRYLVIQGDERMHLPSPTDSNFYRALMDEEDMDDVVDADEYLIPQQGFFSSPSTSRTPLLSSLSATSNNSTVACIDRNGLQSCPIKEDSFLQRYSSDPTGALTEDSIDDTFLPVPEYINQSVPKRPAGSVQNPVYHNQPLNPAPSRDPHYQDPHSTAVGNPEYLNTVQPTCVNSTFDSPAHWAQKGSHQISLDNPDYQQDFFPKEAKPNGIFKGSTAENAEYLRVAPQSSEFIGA

Q: For `O=C(Cn1cnc2cc([N+](=O)[O-])ccc2c1=O)Nc1ccccc1` [9a, 2-(7-Nitro-4-oxoquinazolin-3(4H)-yl)-N-phenylacetamide], which “Caspase-3 ± SE” value (caspase-3) is on record?
A: 0.98 ± 0.04 ng/mL

Q: What about the “Caspase-3 ± SE” value (caspase-3; listed as N1) of the same compound?
A: 0.98 ng/mL

Q: And the “caspase-3 expression level, fold increase” value (caspase-3; HepG-2, vs control cells)?
A: 2.1 fold

Q: What about the “fold reduction in Bcl-2 expression level” value (Bcl-2; HepG-2, vs control) of the same compound?
A: 2.8 fold

Q: And the Bcl-2 expression level (Bcl-2; HepG-2, control 3.49)?
A: 1.23 fold change

Q: And the “Gene expression (fold change) Bcl-2” value (Bcl-2; HepG-2, control 3.4983)?
A: 1.2368 ± 0.30 fold change

Q: And the “Caspase-9 ± SE” value (caspase-9)?
A: 30.57 ± 3.39 ng/L

Q: What about the “Caspase-9 ± SE” value (caspase-9; listed as N1) of the same compound?
A: 30.57 ng/L

Q: And the “caspase-9 expression level, fold increase” value (caspase-9; HepG-2, vs control cells)?
A: 2.77 fold

Q: And the Activity % (VEGFR-2; HepG2)?
A: 14.760%

Q: What about the Inhibition % (VEGFR-2; HepG2) of the same compound?
A: 85.240%

Q: And the Activity % (VEGFR-2; K-562)?
A: 35.983%

Q: And the Inhibition % (VEGFR-2; K-562)?
A: 64.017%

Q: What about the Activity % (VEGFR-2; MCF7) of the same compound?
A: 19.964%

Q: What about the Inhibition % (VEGFR-2; MCF7) of the same compound?
A: 80.036%

Q: And the “fold increase in BAX expression level” value (BAX; HepG-2, vs control)?
A: 6 fold

Q: And the BAX expression level (BAX; HepG-2, control 0.44)?
A: 2.65 fold change

Q: What about the “Gene expression (fold change) BAX” value (BAX; HepG-2, control 0.4448) of the same compound?
A: 2.6533 ± 0.40 fold change

Q: And the viability at 0.195 µmol (MCF-7 [1]; MCF-7, 0.195 umol)?
A: 56.6%

Q: What about the cytotoxicity at 0.195 µmol (MCF-7 [1]; MCF-7, 0.195 umol, read-out: Toxicity %) of the same compound?
A: 43.4%

Q: What about the viability at 0.391 µmol (MCF-7 [1]; MCF-7, 0.391 umol) of the same compound?
A: 41.8%

Q: What about the cytotoxicity at 0.391 µmol (MCF-7 [1]; MCF-7, 0.391 umol, read-out: Toxicity %) of the same compound?
A: 58.2%

Q: What about the viability at 0.781 µmol (MCF-7 [1]; MCF-7, 0.781 umol) of the same compound?
A: 27.6%

Q: And the cytotoxicity at 0.781 µmol (MCF-7 [1]; MCF-7, 0.781 umol, read-out: Toxicity %)?
A: 72.4%

Q: And the viability at 1.563 µmol (MCF-7 [1]; MCF-7, 1.563 umol)?
A: 13.5%

Q: What about the cytotoxicity at 1.563 µmol (MCF-7 [1]; MCF-7, 1.563 umol, read-out: Toxicity %) of the same compound?
A: 86.5%

Q: And the viability at 3.125 µmol (MCF-7 [1]; MCF-7, 3.125 umol)?
A: 9.94%

Q: And the cytotoxicity at 3.125 µmol (MCF-7 [1]; MCF-7, 3.125 umol, read-out: Toxicity %)?
A: 90.1%

Q: What about the viability at 6.25 µmol (MCF-7 [1]; MCF-7, 6.25 umol) of the same compound?
A: 8.66%

Q: And the cytotoxicity at 6.25 µmol (MCF-7 [1]; MCF-7, 6.25 umol, read-out: Toxicity %)?
A: 91.3%

Q: And the viability at 12.5 µmol (MCF-7 [1]; MCF-7, 12.5 umol)?
A: 6.99%

Q: What about the cytotoxicity at 12.5 µmol (MCF-7 [1]; MCF-7, 12.5 umol, read-out: Toxicity %) of the same compound?
A: 93%

Q: What about the viability at 25 µmol (MCF-7 [1]; MCF-7, 25 umol) of the same compound?
A: 6.42%

Q: And the cytotoxicity at 25 µmol (MCF-7 [1]; MCF-7, 25 umol, read-out: Toxicity %)?
A: 93.6%

Q: What about the IC50 (MCF-7 [1]; MTT, MCF-7, read-out: Cytotoxicity against cancer cells IC50 MCF-7) of the same compound?
A: 282.4 ± 1.4 nM

Q: And the viability at 0.195 µmol (K-562; K-562, 0.195 umol)?
A: 66.6%

Q: And the cytotoxicity at 0.195 µmol (K-562; K-562, 0.195 umol, read-out: Toxicity %)?
A: 33.4%

Q: And the viability at 0.391 µmol (K-562; K-562, 0.391 umol)?
A: 49.6%

Q: What about the cytotoxicity at 0.391 µmol (K-562; K-562, 0.391 umol, read-out: Toxicity %) of the same compound?
A: 50.4%

Q: And the viability at 0.781 µmol (K-562; K-562, 0.781 umol)?
A: 30.8%

Q: What about the cytotoxicity at 0.781 µmol (K-562; K-562, 0.781 umol, read-out: Toxicity %) of the same compound?
A: 69.2%

Q: What about the viability at 1.563 µmol (K-562; K-562, 1.563 umol) of the same compound?
A: 16.5%

Q: What about the cytotoxicity at 1.563 µmol (K-562; K-562, 1.563 umol, read-out: Toxicity %) of the same compound?
A: 83.5%

Q: What about the viability at 3.125 µmol (K-562; K-562, 3.125 umol) of the same compound?
A: 8.91%

Q: What about the cytotoxicity at 3.125 µmol (K-562; K-562, 3.125 umol, read-out: Toxicity %) of the same compound?
A: 91.1%

Q: And the viability at 6.25 µmol (K-562; K-562, 6.25 umol)?
A: 8.78%

Q: What about the cytotoxicity at 6.25 µmol (K-562; K-562, 6.25 umol, read-out: Toxicity %) of the same compound?
A: 91.2%

Q: And the viability at 12.5 µmol (K-562; K-562, 12.5 umol)?
A: 7.76%

Q: What about the cytotoxicity at 12.5 µmol (K-562; K-562, 12.5 umol, read-out: Toxicity %) of the same compound?
A: 92.2%

Q: And the viability at 25 µmol (K-562; K-562, 25 umol)?
A: 7.02%

Q: And the cytotoxicity at 25 µmol (K-562; K-562, 25 umol, read-out: Toxicity %)?
A: 93%

Q: What about the IC50 (K-562; MTT, K-562, read-out: Cytotoxicity against cancer cells IC50 K-562) of the same compound?
A: 385.8 ± 3.2 nM

Q: And the Activity % (EGFR; HepG2)?
A: 16.297%

Q: And the Inhibition % (EGFR; HepG2)?
A: 83.703%

Q: What about the Activity % (EGFR; K-562) of the same compound?
A: 21.954%

Q: What about the Inhibition % (EGFR; K-562) of the same compound?
A: 78.046%

Q: And the Activity % (EGFR; MCF7)?
A: 19.563%

Q: And the Inhibition % (EGFR; MCF7)?
A: 80.437%

Q: What about the viability at 0.195 µg/mL (HepG-2; HepG-2, 0.195 ug/ml) of the same compound?
A: 45.9%

Q: What about the cytotoxicity at 0.195 µg/mL (HepG-2; HepG-2, 0.195 ug/ml, read-out: Toxicity %) of the same compound?
A: 54.1%

Q: What about the viability at 0.391 µg/mL (HepG-2; HepG-2, 0.391 ug/ml) of the same compound?
A: 29.7%

Q: And the cytotoxicity at 0.391 µg/mL (HepG-2; HepG-2, 0.391 ug/ml, read-out: Toxicity %)?
A: 70.3%

Q: What about the viability at 0.781 µg/mL (HepG-2; HepG-2, 0.781 ug/ml) of the same compound?
A: 21%

Q: What about the cytotoxicity at 0.781 µg/mL (HepG-2; HepG-2, 0.781 ug/ml, read-out: Toxicity %) of the same compound?
A: 79%

Q: And the viability at 1.563 µg/mL (HepG-2; HepG-2, 1.563 ug/ml)?
A: 12.7%

Q: And the cytotoxicity at 1.563 µg/mL (HepG-2; HepG-2, 1.563 ug/ml, read-out: Toxicity %)?
A: 87.3%

Q: And the viability at 3.125 µg/mL (HepG-2; HepG-2, 3.125 ug/ml)?
A: 9.56%

Q: And the cytotoxicity at 3.125 µg/mL (HepG-2; HepG-2, 3.125 ug/ml, read-out: Toxicity %)?
A: 90.4%

Q: And the viability at 6.25 µg/mL (HepG-2; HepG-2, 6.25 ug/ml)?
A: 6.96%

Q: What about the cytotoxicity at 6.25 µg/mL (HepG-2; HepG-2, 6.25 ug/ml, read-out: Toxicity %) of the same compound?
A: 93%

Q: What about the viability at 12.5 µg/mL (HepG-2; HepG-2, 12.5 ug/ml) of the same compound?
A: 6.04%

Q: What about the cytotoxicity at 12.5 µg/mL (HepG-2; HepG-2, 12.5 ug/ml, read-out: Toxicity %) of the same compound?
A: 94%

Q: And the viability at 25 µg/mL (HepG-2; HepG-2, 25 ug/ml)?
A: 5.71%

Q: What about the cytotoxicity at 25 µg/mL (HepG-2; HepG-2, 25 ug/ml, read-out: Toxicity %) of the same compound?
A: 94.3%

Q: And the IC50 (HepG-2; MTT, HepG-2, read-out: Cytotoxicity against cancer cells IC50 HepG-2)?
A: 187.1 ± 1.7 nM

Q: And the “Gene expression (fold change) BAX/Bcl-2 ratio” value (BAX/Bcl-2; control 0.1260)?
A: 2.1544 ± 0.96

Q: And the BAX/Bcl-2 ratio (BAX/Bcl-2; control […])?
A: 2.15

Q: And the “IL-6R ± SE” value (IL-6R; HepG-2, at IC50 concentrations)?
A: 26.0 ± 0.97 ng/L

Q: And the “IL-6 ±SE” value (IL-6R; raw data, HepG2)?
A: 14.73 ng/L

Q: And the “TNF-alpha ±SE” value (TNF-alpha; HepG-2, at IC50 concentrations)?
A: 23.6 ± 1.35 ng/L

Q: What about the “TNF-alpha ±SE” value (TNF-alpha; raw data, HepG2) of the same compound?
A: 9.13 ng/L

Q: With `O=C(Nc1ccc(Oc2nc(Cl)nc3ccccc23)cc1)c1cccnc1` [VIII] as the compound, how does the “IC50 PC3” value (PC3) read?
A: 40.90 µg/mL (≈ 109 µM)

Q: And the “IC50 MCF-7” value (MCF-7 [2])?
A: 33.40 µg/mL (≈ 88.6 µM)

Q: And the IC50 (VEGFR-2 kinase; read-out: VEGFR-2 inhibition IC50)?
A: 60 nM

Q: And the “IC50 HepG2” value (HepG2)?
A: 24.10 µg/mL (≈ 64 µM)

Q: Which “IC50 PC3” value (PC3) does the source give for `O=C(CSc1nc2ccc([N+](=O)[O-])cc2c(=O)n1-c1ccccc1)NNC(=O)c1ccccc1` [VII] here?
A: 26.10 µg/mL (≈ 54.9 µM)

Q: And the “IC50 MCF-7” value (MCF-7 [2])?
A: 30.85 µg/mL (≈ 64.9 µM)

Q: And the IC50 (VEGFR-2 kinase; read-out: IC50 against VEGFR-2 kinase)?
A: 4600 ± 60 nM

Q: What about the IC50 (WI-38) of the same compound?
A: 146 µM

Q: And the “IC50 HepG2” value (HepG2)?
A: 17.23 µg/mL (≈ 36.2 µM)
